Data from patent publication US20080009546A1 (Chevron U.S.A. Inc., priority 2005, published 2008).

System: primary neurons from rat cerebral cortex
Assay: NMDA-induced LDH release assay in primary cortical neurons (neuroprotection)
Assay type: cell-based
Design: Total LDH (Avg): unit not given here
Procedure, shortened: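 Fetal rat (E16–E18) cortical neurons on mouse astroglial feeder layers, fed growth medium/neurobasal+B27 (1:1), used after 11–14 days. Treatments given in Locke's buffer pH 7.4 for 15 min, then cells washed; 24 h later percent LDH released = 100×secreted/(total+secreted), tetrazolium readout.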

[1] = NMDA 300 uM + Memantine 50 uM, Plate #4, poly-lysine-coated rat neurons, GM/NB + B-27 fed, 24 hour incubation
[2] = NMDA 300 uM + Memantine 50 uM, Plate #5, astrocyte-coated rat neurons, GM fed, 24 hour incubation
[3] = NMDA 300 uM + Memantine 50 uM, astrocyte-coated rat neurons, GM/NB + B-27 fed, 24 hour incubation
[4] = NMDA 500 μM + Memantine 10 μM, astrocyte-coated rat neurons, GM/NB + B-27 fed, 21 hour incubation
[5] = NMDA 500 uM + Memantine 10 uM, poly-lysine-coated rat neurons, GM/NB + B-27 fed, 40 hour incubation
[6] = NMDA 500 μM + Memantine 100 μM, astrocyte-coated rat neurons, GM/NB + B-27 fed, 21 hour incubation
[7] = NMDA 500 uM + Memantine 100 uM, poly-lysine-coated rat neurons, GM/NB + B-27 fed, 40 hour incubation

`CC12CC3CC(C)(C1)CC(N)(C3)C2` [memantine, 1-amino-3,5-dimethyladamantane, reference compound] was tested. Which “% (Control Wash = 100)” value [1] did it give?
Its value is 166%.

What about the “Secreted LDH (Avg)” value [1] of the same molecule?
Its value is 0.75.

And the “Secreted/(total + secreted) (Avg)” value [1]?
Its value is 18.20.

What about the “Total LDH (Avg)” value [1] of the same molecule?
The value was 3.36.

What about the “% (Control Wash = 100)” value [2] of the same molecule?
Its value is 106%.

What about the “Secreted LDH (Avg)” value [2] of the same molecule?
The value was 0.20.

What about the “Secreted/(total + secreted) (Avg)” value [2] of the same molecule?
Its value is 6.20.

What about the “Total LDH (Avg)” value [2] of the same molecule?
Its value is 3.06.

And the “% (Control Wash = 100)” value [3]?
Its value is 272%.

And the “Secreted LDH (Avg)” value [3]?
The value was 0.83.

What about the “Secreted/(total + secreted) (Avg)” value [3] of the same molecule?
Its value is 19.63.

And the “Total LDH (Avg)” value [3]?
Its value is 3.41.

What about the “% (Control Wash = 100)” value [4] of the same molecule?
Its value is 129%.

What about the “Secreted LDH (Avg)” value [4] of the same molecule?
Its value is 0.47.

What about the “Secreted/(total + secreted) (Avg)” value [4] of the same molecule?
Its value is 10.73.

What about the “Total LDH (Avg)” value [4] of the same molecule?
The value was 3.89.

And the “% (Control Wash = 100)” value [5]?
Its value is 111%.

What about the “Secreted LDH (Avg)” value [5] of the same molecule?
Its value is 0.41.

What about the “Secreted/(total + secreted) (Avg)” value [5] of the same molecule?
The value was 12.77.

What about the “Total LDH (Avg)” value [5] of the same molecule?
The value was 2.80.

And the “% (Control Wash = 100)” value [6]?
The value was 114%.

And the “Secreted LDH (Avg)” value [6]?
The value was 0.42.

What about the “Secreted/(total + secreted) (Avg)” value [6] of the same molecule?
The value was 9.47.

What about the “Total LDH (Avg)” value [6] of the same molecule?
Its value is 4.02.

What about the “% (Control Wash = 100)” value [7] of the same molecule?
The value was 156%.

What about the “Secreted LDH (Avg)” value [7] of the same molecule?
Its value is 0.52.

And the “Secreted/(total + secreted) (Avg)” value [7]?
The value was 17.86.

And the “Total LDH (Avg)” value [7]?
Its value is 2.39.
